Target: T1, Ubiquitin carboxyl-terminal hydrolase 30 (Homo sapiens, UniProt Q70CQ3)
T1 sequence (Q70CQ3 whole entry): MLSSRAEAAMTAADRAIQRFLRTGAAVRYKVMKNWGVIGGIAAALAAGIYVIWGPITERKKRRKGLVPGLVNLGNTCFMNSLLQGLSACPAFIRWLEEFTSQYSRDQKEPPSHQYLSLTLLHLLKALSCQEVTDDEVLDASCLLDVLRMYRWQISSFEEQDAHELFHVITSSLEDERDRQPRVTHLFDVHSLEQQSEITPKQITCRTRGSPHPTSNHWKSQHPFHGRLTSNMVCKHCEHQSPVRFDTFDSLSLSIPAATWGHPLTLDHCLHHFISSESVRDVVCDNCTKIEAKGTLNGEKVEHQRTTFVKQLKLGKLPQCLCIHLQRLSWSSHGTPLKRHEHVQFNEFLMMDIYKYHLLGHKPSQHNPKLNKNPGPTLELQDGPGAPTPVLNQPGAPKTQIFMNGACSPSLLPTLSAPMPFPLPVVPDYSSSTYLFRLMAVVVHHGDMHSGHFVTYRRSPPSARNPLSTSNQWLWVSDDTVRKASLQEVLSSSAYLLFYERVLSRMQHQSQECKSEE
Experiment: Biochemical Fluorescence Intensity Kinetic Assay/Biochemical Fluorescence Intensity Assay
Experimental: Buffer was optimised for optimal temperature, pH, reducing agent, salts, time of incubation, and detergent. […] Reactions were incubated at room temperature and read every 2 min for 120 min. Readings were performed on a Pherastar Plus (BMG Labtech). […] A typical 8-point dilution series would be 100, 30, 10, 3, 1, 0.3, 0.1, 0.03 μM final. […] Either 1 μl of 50% DMSO or diluted compound was added to the plate. USP30 was diluted in reaction buffer (40 mM Tris, pH 7.5, 0.005% Tween 20, 0.5 mg/ml BSA, 5 mM beta-mercaptoethanol) to the equivalent of 0.001 μl/well and 10 μl of diluted USP30 was added to the compound. Enzyme and compound were incubated for 30 min at room temp. […] Reactions were read immediately after addition of substrate and following a 2 h incubation at room temperature.

## CO[C@@H]1CN(C#N)C[C@H]1N(C)C(=O)c1ccc(-c2cnn(C)c2)cc1 [US10689345, Example 178]
  IC50: in the range around 550 nM

Source: BindingDB's records for patent US10689345 (Mission Therapeutics Limited, 2020)
